We go through two compounds from patent publication US20230065562A1, “DUAL CONTROLS FOR THERAPEUTIC CELL ACTIVATION OR ELIMINATION” (Bellicum Pharmaceuticals, Inc., priority 2015, published 2023).

One data set relates to T cells expressing iC9. The data set can be described thus: T cell killing assay with caspase 3/7 green reagent monitored by IncuCyte, iC9. The class given is cell-based, human. The note with it: increasing doses, PBMCs from 3 donors, FIG. 108B.
In data set [1] the test system is luciferase-expressing U266 myeloma cells. The data set can be described thus: NSG mice engrafted with U266 myeloma cells, iMC-PRAME TCR T cells with rimiducid. It is filed as in vivo, mouse. How it is done:
FIG. 121: (A) NSG mice were engrafted with 1×10^6 luciferase-expressing U266 myeloma cells and treated with […] non-transduced, PRAME TCR- or iMC-PRAME TCR-transduced T cells on day 13. […] (B) Tumor growth was measured by bioluminescence imaging.

The test system of another data set is Raji-GFP cells. The data set can be described thus: Raji-GFP coculture with CD19 CAR-T cells (flow cytometry). The class given is cell-based, human. The note with it: 2 nM, E:T 1:5, seven days. A general note: In flow cytometry, cells or beads pass a laser one at a time.
The next data set concerns non-transduced cells. The data set can be described thus: AP20187 on non-transduced cells (annexin V/7-AAD viability). The class given is cell-based, human. How it is done: Suicide gene functionality was assessed by adding a small molecule synthetic homodimerizer, AP20187 (Ariad Pharmaceuticals; Cambridge, Mass.), at 10 nM final concentration the day following CD19 immunomagnetic selection. Cells were stained with annexin V and 7-amino-actinomycin (7-AAD)(BD Pharmingen) at 24 hours and analyzed by flow cytometry. Cells negative for both annexin V and 7-AAD were considered viable, cells that were annexin V positive were apoptotic, and cells that were both annexin V and 7-AAD positive were necrotic. The percentage killing induced by dimerization was corrected for baseline viability as follows: Percentage killing=100%−(% Viability in AP20187-treated cells÷% Viability in nontreated cells).
The day following immunomagnetic selection, 10 nM of the chemical inducer of dimerization, AP20187, was added to induce apoptosis, which appeared within 24 hours. […] Killing efficiency after correction for baseline viability was about 92.9%±3.8%. Large-scale CD19 selection produced cells that were killed with similar efficiency as small-scale selection: mean viability with and without AP20187, and percentage killing, in large and small scale were about 3.9%, about 84.0%, about 95.4% (n=3) and about 6.6%, about 79.3%, about 91.4% (n=5) respectively. […]

For data set [2], the system named is iCasp9-ΔCD19-transduced MSCs. Briefly: In vivo killing studies of iCasp9-ΔCD19 MSCs in murine model. Also noted: species or system SCID mice. How it is done: All mouse experiments were performed in accordance with the Baylor College of Medicine animal husbandry guidelines. To assess the persistence of modified MSCs in vivo, a SCID mouse model was used in conjunction with an in vivo imaging system. MSCs were transduced with retroviruses coding for the enhanced green fluorescent protein-firefly luciferase (eGFP-FFLuc) gene alone or together with the iCasp9-ΔCD19 gene. Cells were sorted for eGFP positivity by fluorescence activated cell sorting using a MoFlo flow cytometer (Beckman Coulter, Fullerton, Calif.). Doubly transduced cells were also stained with PE-conjugated anti-CD19 and sorted for PE-positivity. SCID mice (8-10 weeks old) were injected subcutaneously with 5×10^5 MSCs with and without iCasp9-ΔCD19 in opposite flanks. […] For in vivo imaging of MSCs expressing eGFP-FFLuc, mice were injected intraperitoneally with D-luciferin (150 mg/kg) and analyzed using the Xenogen-IVIS Imaging System. Total luminescence (a measurement proportional to the total labeled MSCs deposited) at each time point was calculated by automatically defining regions-of-interest (ROIs) over the MSC implantation sites. These ROIs included all areas with luminescence signals at least 5% above background. Total photon counts were integrated for each ROI and an average value calculated. […]

Experimental for Raji-GFP cells: After seven days of incubation the live cells were analyzed for the proportion of GFP labeled tumor cells (left) and for the proportion of total T cells (CD3^+, right) and transduced CAR-T cells (CD34, not shown).
Raji cells (ATCC) labeled by stable expression of Green Fluorescent Protein (Raji-GFP) are a Burkitt's lymphoma cell line that express CD19 on the cell surface and are a target for an anti-CD19 CAR. 50000 Raji-GFP cells were seeded on a 24 well plate with 10000 CAR-T cells, a 1:5 E:T ratio. Media supernatant was taken at 48 hours for determination of cytokine release by activated CAR-T cells. The degree of tumor killing was determined at 7 days and 14 days by flow cytometry (Galeos, Beckman-Coulter) by the proportion of GFP labeled tumor cells and CD3 labeled T cells.
Text for T cells expressing iC9: To determine the functionality of these switches in activated T cells, retroviral supernatants were produced and transduced into PBMCs activated from 3 separate donors.

Regarding `CC[C@H](C(=O)N1CCCC[C@H]1C(=O)O[C@H](CCc1ccc(OC)c(OC)c1)c1cccc(OCC(=O)NCCNC(=O)COc2cccc([C@@H](CCc3ccc(OC)c(OC)c3)OC(=O)[C@@H]3CCCCN3C(=O)[C@@H](CC)c3cc(OC)c(OC)c(OC)c3)c2)c1)c1cc(OC)c(OC)c(OC)c1` [rimiducid], the “activation of iC9 in T cells (caspase 3/7)” value in the data set on T cells expressing iC9 was “can activate”. Further, the “number of Vβ1+CD8+ T cells in spleen” value in data set [1] (5 mg/kg rimiducid i.p. weekly day 14 to 38, spleens day 94, FIG. 121C) is “significantly increased”. For the same compound, the “anti-tumor efficacy of TCR-modified T cells with rimiducid-driven iMC activation” value in data set [1] (summary, in vitro and in vivo) is “improved anti-tumor efficacy”. Further, the “CAR-T cells with i9+CARζ+MC or FRBFwtMC/FvC9” value in the data set with Raji-GFP cells is recorded as “caused cell death”.
`CC[C@H](C(=O)N1CCCC[C@H]1C(=O)O[C@H](CCc1ccc(OC)c(OC)c1)c1cccc(OCC(=O)NCC(CNC(=O)COc2cccc([C@@H](CCc3ccc(OC)c(OC)c3)OC(=O)[C@@H]3CCCCN3C(=O)[C@@H](CC)c3cc(OC)c(OC)c(OC)c3)c2)CN(C)C)c1)c1cc(OC)c(OC)c(OC)c1` [AP20187]: the “toxicity to non-transduced cells” value with non-transduced cells is listed as “non-toxic”. For the same compound, the “viability with AP20187” value in the data set with non-transduced cells (non-transduced cells (n=6)) was “about 86%±9”. In data set [2] (qPCR iCasp9/eGFP copy ratio), the “proportion of surviving iCasp9-positive cells after one week” value was 0.7%. Moreover, the “killing / depletion of iCasp9-positive cells in vivo” value in data set [2] (two i.p. injections of 50 μg CID 24 h apart) is on record as greater than 99%.
